Nine molecules from patent US11919899B2, “Substituted 1-(3,3-difluoropiperidin-4-yl)-imidazo[4,5-c] quinolin-2-one compounds with blood-brain barrier penetrable capability” (priority 2020, dated 2024) can be followed below.

A short description of data set [1]: Blood-brain barrier penetration (brain tissue to plasma concentration ratio). The following applies: ratio of concentration in brain tissue to plasma; rats or mice, four hours after dosing. The data set is classed as in vivo. How it is done:
Four hours after dosing, rats or mice were sacrificed, blood and brain tissue were collected and the concentration of the test compound was analyzed. Brain permeation is defined as the ratio of the concentration of the compound in the brain tissue to the concentration in the plasma. P-glycoprotein and BCRP (Breast Cancer Resistance Protein) are the blood-brain barrier efflux proteins, the P-glycoprotein substrate (Efflux ratio>1.5) and/or BCRP substrate (Efflux ratio>1.5) is out of the brain.

In data set [2] the target is P-glycoprotein (Homo sapiens, UniProt P08183). Put plainly: P-glycoprotein efflux substrate. The following applies: not told. Type of data set: in vitro ADME.
Data set [3] concerns the target T1, BCRP (Homo sapiens, UniProt Q9UNQ0).
T1 sequence (Q9UNQ0 1-655): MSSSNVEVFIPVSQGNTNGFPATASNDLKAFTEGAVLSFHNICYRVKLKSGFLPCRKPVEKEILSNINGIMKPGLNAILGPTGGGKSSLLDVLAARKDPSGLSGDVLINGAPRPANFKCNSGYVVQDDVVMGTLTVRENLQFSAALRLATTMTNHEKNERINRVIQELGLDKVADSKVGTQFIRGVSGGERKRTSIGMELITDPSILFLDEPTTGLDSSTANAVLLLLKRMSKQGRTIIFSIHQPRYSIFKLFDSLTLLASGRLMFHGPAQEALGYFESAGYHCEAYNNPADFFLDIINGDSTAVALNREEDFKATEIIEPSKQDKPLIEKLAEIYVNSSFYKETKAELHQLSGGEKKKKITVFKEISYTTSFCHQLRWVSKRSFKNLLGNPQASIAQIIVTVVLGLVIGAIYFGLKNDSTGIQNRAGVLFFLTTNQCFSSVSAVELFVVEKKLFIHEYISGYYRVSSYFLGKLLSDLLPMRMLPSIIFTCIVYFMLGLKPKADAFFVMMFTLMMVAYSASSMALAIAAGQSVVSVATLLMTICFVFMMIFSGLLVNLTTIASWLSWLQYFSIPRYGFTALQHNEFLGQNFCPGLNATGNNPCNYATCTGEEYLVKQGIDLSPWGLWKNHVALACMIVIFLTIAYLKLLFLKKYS
The data set can be described thus: BCRP efflux substrate. As to conditions: not told. The data set is classed as in vitro ADME.

Broadly, the Kp is tissue or fluid exposure divided by exposure in the circulation. For orientation: efflux ratio means a quotient of directional permeabilities that is used to spot active efflux.

Chain of P-glycoprotein (P08183 whole entry): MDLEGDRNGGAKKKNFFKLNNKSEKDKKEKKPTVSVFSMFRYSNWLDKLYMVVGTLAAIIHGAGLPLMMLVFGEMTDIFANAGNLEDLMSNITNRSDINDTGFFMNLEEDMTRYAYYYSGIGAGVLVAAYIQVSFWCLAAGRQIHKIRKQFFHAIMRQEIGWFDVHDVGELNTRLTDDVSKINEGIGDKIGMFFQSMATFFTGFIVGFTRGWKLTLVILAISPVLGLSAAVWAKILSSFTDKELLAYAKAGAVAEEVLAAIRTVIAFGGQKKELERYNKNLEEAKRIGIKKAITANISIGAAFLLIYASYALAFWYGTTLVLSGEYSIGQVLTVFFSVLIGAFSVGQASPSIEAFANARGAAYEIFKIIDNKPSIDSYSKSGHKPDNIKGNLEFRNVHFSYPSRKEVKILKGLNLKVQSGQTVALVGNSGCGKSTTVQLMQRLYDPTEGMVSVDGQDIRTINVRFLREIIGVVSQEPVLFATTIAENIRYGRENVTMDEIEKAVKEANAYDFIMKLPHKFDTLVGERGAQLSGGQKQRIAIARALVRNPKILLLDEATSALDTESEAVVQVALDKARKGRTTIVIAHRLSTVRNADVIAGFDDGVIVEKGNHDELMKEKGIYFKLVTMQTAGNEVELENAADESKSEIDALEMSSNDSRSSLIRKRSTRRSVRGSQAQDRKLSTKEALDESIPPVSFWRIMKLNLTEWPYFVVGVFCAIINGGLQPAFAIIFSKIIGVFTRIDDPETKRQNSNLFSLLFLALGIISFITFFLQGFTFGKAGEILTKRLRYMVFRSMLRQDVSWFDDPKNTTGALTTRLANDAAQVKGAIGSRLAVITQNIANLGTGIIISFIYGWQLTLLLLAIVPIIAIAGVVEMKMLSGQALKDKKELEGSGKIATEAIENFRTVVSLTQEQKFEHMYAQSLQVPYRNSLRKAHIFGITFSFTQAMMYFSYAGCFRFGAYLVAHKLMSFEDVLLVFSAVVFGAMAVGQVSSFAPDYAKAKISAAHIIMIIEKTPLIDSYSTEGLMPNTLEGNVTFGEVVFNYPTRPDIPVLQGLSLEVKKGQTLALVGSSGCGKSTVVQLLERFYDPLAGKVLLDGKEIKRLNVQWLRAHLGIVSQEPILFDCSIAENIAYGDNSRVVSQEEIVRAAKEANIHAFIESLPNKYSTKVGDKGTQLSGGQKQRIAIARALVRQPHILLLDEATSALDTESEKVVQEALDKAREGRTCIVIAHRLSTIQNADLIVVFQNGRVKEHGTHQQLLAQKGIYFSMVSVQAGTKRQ

For the molecule `COc1ccc(-c2ccc3ncc4c(c3c2)n([C@H]2CCN(C(C)C)CC2(F)F)c(=O)n4C)cn1` [Compound 30, (S)-1-(3,3-difluoro-1-isopropylpiperidin-4-yl)-8-(6-methoxypyridin-3-yl)-3-methyl-1,3-dihydro-2H-imidazo[4,5-c]quinolin-2-one], the Kp at 4 h in data set [1] was over 0.3. Also, the efflux ratio in data set [2] and in data set [3] was under 1 in each case.
`CCOc1ccc(-c2ccc3ncc4c(c3c2)n([C@H]2CCN(C)CC2(F)F)c(=O)n4C)cn1` [Compound 31, (S)-1-(3,3-difluoro-1-methylpiperidin-4-yl)-8-(6-ethoxypyridin-3-yl)-3-methyl-1,3-dihydro-2H-imidazo[4,5-c]quinolin-2-one]: the Kp at 4 h in data set [1] is over 0.3. In addition, the efflux ratio in data set [2] and in data set [3] was under 1 throughout.
Regarding `COc1ccc(-c2cc3c(cc2F)ncc2c3n([C@H]3CCN(C)CC3(F)F)c(=O)n2C)cn1` [Compound 32, (S)-1-(3,3-difluoro-1-methylpiperidin-4-yl)-7-fluoro-8-(6-methoxypyridin-3-yl)-3-methyl-1,3-dihydro-2H-imidazo[4,5-c]quinolin-2-one], the Kp at 4 h in data set [1] was over 0.3. The efflux ratio in data set [2] and in data set [3] was under 1 in each case.
As to `CC(C)Oc1ccc(-c2ccc3ncc4c(c3c2)n([C@H]2CCN(C)CC2(F)F)c(=O)n4C)cn1` [Compound 34, (S)-1-(3,3-difluoro-1-methylpiperidin-4-yl)-8-(6-isopropoxypyridin-3-yl)-3-methyl-1,3-dihydro-2H-imidazo[4,5-c]quinolin-2-one], in data set [1], the partition ratio (Kp) at 4 h is over 0.3. Besides, the efflux ratio in data set [2] and in data set [3] was under 1 in each case.
For the molecule `CN1CC[C@H](n2c(=O)n(C)c3cnc4ccc(-c5ccc(N(C)C)nc5)cc4c32)C(F)(F)C1` [Compound 35, (S)-1-(3,3-difluoro-1-methylpiperidin-4-yl)-8-(6-(dimethylamino)pyridin-3-yl)-3-methyl-1,3-dihydro-2H-imidazo[4,5-c]quinolin-2-one], the Kp at 4 h in data set [1] was over 0.3. The efflux ratio in data set [2] and in data set [3] was under 1 each time.
Regarding `CN1CC[C@H](n2c(=O)n(C)c3cnc4ccc(-c5ccc(OC6CC6)nc5)cc4c32)C(F)(F)C1` [Compound 37, (S)-8-(6-cyclopropoxypyridin-3-yl)-1-(3,3-difluoro-1-methylpiperidin-4-yl)-3-methyl-1,3-dihydro-2H-imidazo[4,5-c]quinolin-2-one], in data set [1], the Kp at 4 h is over 0.3. Besides, the efflux ratio in data set [2] and in data set [3] was under 1 each time.
`CN1CC[C@H](n2c(=O)n(C)c3cnc4ccc(-c5ccc(N6CC(N(C)C)C6)nc5)cc4c32)C(F)(F)C1` [Compound 38, (S)-1-(3,3-difluoro-1-methylpiperidin-4-yl)-8-(6-(3-(dimethylamino)azetidin-1-yl)pyridin-3-yl)-3-methyl-1,3-dihydro-2H-imidazo[4,5-c]quinolin-2-one]: in data set [1], the Kp at 4 h is over 0.3. Besides, the efflux ratio in data set [2] and in data set [3] was under 1 throughout.
As for `CN1CC[C@H](n2c(=O)n(C)c3cnc4ccc(-c5ccc(N6C[C@@H]7[C@H]6CCN7C)nc5)cc4c32)C(F)(F)C1` [Compound 40], the Kp at 4 h in data set [1] is over 0.3. For the same molecule, the efflux ratio in data set [2] and in data set [3] was under 1 in each case.
As to `CN1CC[C@H](n2c(=O)n(C)c3cnc4ccc(-c5ccc(N6C[C@H]7[C@@H]6CCN7C)nc5)cc4c32)C(F)(F)C1` [Compound 41], the concentration ratio (Kp) at 4 h in data set [1] was over 0.3. The efflux ratio in data set [2] and in data set [3] was under 1 in each case.
